Data set [1] deals with T1, RIM1 C2B (RIM1α C2B domain) (Rattus norvegicus, UniProt Q9JIR4).
T1 sequence (Q9JIR4 1447-1615): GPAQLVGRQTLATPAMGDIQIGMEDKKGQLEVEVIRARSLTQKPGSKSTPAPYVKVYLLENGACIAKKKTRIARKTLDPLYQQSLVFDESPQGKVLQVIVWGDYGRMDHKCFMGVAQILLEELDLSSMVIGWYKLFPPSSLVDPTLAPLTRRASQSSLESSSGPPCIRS
The data set is described as follows: 1H-15N HSQC NMR titration. The class given is binding.

Data set [2] concerns the molecule itself. Nature of the data set: AUC.

What is called Kd is the equilibrium constant for the complex coming apart. Low readings indicate higher affinity, high ones lower affinity.

In data set [1], `CCCC(=O)OC[C@H](COP(=O)(O)O[C@@H]1[C@H](O)[C@H](O)[C@@H](OP(=O)(O)O)[C@H](OP(=O)(O)O)[C@H]1O)OC(=O)CCC` [diC4-PIP2] showed a Kd of 32 to 79 µM.

B1: RIM1α C2B domain (GST tag cleaved) (domain or fragment, rat)
chain: GPAQLVGRQTLATPAMGDIQIGMEDKKGQLEVEVIRARSLTQKPGSKSTPAPYVKVYLLENGACIAKKKTRIARKTLDPLYQQSLVFDESPQGKVLQVIVWGDYGRMDHKCFMGVAQILLEELDLSSMVIGWYKLFPPSSLVDPTLAPLTRRASQSSLESSSGPPCIRS
B1 displayed a Kd in data set [2] of about 3000 µM.

The record behind these values is paper PMC5910229 (Neuron, 2018).
